Assay results taken from US12595253B2, “Benzamides of pyrazolylamino-pyrimidinyl derivatives, and compositions and methods thereof” (LYNK PHARMACEUTICALS CO. LTD., priority 2019, dated 2026).

How the values were obtained:
[1] = Mini-pig dermal pharmacokinetic study; assay type: in vivo, Guangxi Bama mini-pigs; settings: topical administration
Excerpt: The aim of this study was to obtain the topical distribution of test articles in mini-pig after topical administration. Test articles were formulated in 50% PEG400, 10% transcutol and 40% PEG3350 (50% in water), and then applied to male Guangxi Bama mini-pigs (17-20 kg). Twenty-four hour prior to dosing, the hair of the mini-pig was shaved in left and right sides of the back. Two areas at least 5 cm apart at each side of the back were exposed (a total of four areas, each of which was about 112 cm^2). At the time zero, the test article was dosed to the exposed skins with […]. After dosing, the blood and skin samples were collected at 0.5, 1, 3, 6 hour. The blood was taken via venipuncture, and collected to the tubes containing heparin sodium as the anticoagulant. Exposed skin was washed with soap and water before skin sample was collected. Upon the dosed skin the punch biopsy from the epidermis layer to the muscle layer were taken at each time point. Epidermis, dermis, subcutis and subcutaneous muscle were quickly separated, weighed and frozen in dry ice. Epidermis and dermis were homogenized in 1:3 (w/v) normal saline. Homogenized samples were extracted with 3 fold volumes of acetonitrile and quantified against a standard curve with LC-MS/MS system.

[2] = Mouse pharmacokinetic study (intravenous and oral); assay type: in vivo; settings: male, plasma, ICR mice, solution
Protocol: Pharmacokinetic profile of test articles in rodent were evaluated in fasted male ICR mouse and Sprague-Dawley rats. […] Rats were dosed with 1 mg/kg and 5 mg/kg by intravenous injection and oral gavage, respectively. Beagle dogs were dosed with 1 mg/kg and 5 mg/kg by intravenous injection and oral gavage, respectively. After dosing, blood samples were collected at each time point. For IV injection group, time points were set at 5, 15, 30 min, and then 1, 2, 4, 8 and 24 hours after dosing. For oral gavage group, timepoints were set at 15, 30 m, and then 1, 2, 4, 8, and 24 hours. Blood was collected into appropriately labeled tubes containing K2EDTA as the anticoagulant. Plasma was obtained within 1 hours of blood collection by centrifugation at 8000×g and 4° C. for 6 minutes, and then stored at −20° C. until analyzed by LCMS/MS for quantification.

[3] = Dog pharmacokinetic study (intravenous and oral); assay type: in vivo; settings: plasma, Beagle dogs, oral, 5 mg/kg, solution
Protocol: (§1) Pharmacokinetic profile of test articles in rodent were evaluated in fasted male ICR mouse and Sprague-Dawley rats. […] Typically, mice were dosed with 2 mg/kg and 10 mg/kg by intravenous injection and oral gavage, respectively. Rats were dosed with 1 mg/kg and 5 mg/kg by intravenous injection and oral gavage, respectively. Beagle dogs were dosed with 1 mg/kg and 5 mg/kg by intravenous injection and oral gavage, respectively. After dosing, blood samples were collected at each time point. For IV injection group, time points were set at 5, 15, 30 min, and then 1, 2, 4, 8 and 24 hours after dosing. For oral gavage group, timepoints were set at 15, 30 m, and then 1, 2, 4, 8, and 24 hours. Blood was collected into appropriately labeled tubes containing K2EDTA as the anticoagulant. Plasma was obtained within 1 hours of blood collection by centrifugation at 8000×g and 4° C. for 6 minutes, and then stored at −20° C. until analyzed by LCMS/MS for quantification.

[4] = Rat pharmacokinetic study (intravenous and oral); assay type: in vivo; settings: Sprague-Dawley rats, oral, 2 mg/kg, solution
[5] = Dog pharmacokinetic study (intravenous and oral); assay type: in vivo; settings: plasma, Beagle dogs, oral, 20 mg/kg, solution
[6] = Rat pharmacokinetic study (intravenous and oral); assay type: in vivo; settings: male, plasma, Sprague-Dawley rats, intravenous, 1 mg/kg, solution
Protocol: as §1

Cc1cnc(Nc2cnn(C3CC(C)(C)OC(C)(C)C3)c2)nc1-c1ccc(C(=O)NCC#N)cc1 [Example 113, N-(cyanomethyl)-4-(5-methyl-2-((1-(2,2,6,6-tetramethyltetrahydro-2H-pyran-4-yl)-1H-pyrazol-4-yl)amino)pyrimidin-4-yl)benzamide]
Dermis, AUC0-last ([1]; dermis): 5209.4 ng·h/g | Epidermis AUC0-last ([1]; epidermis): 107236.9 ng·h/g | AUC ([2]; intravenous, 1 mg/kg): 279 ng·h/mL | Vd ([2]; intravenous, 1 mg/kg): 0.67 L/kg | clearance ([2]; intravenous, 1 mg/kg): 59.5 mL/min/kg | half-life ([2]; intravenous, 1 mg/kg): 0.13 h | AUC ([2]; oral, 5 mg/kg): 113 ng·h/mL | Cmax ([2]; oral, 5 mg/kg): 175 ng/mL | bioavailability ([2]; oral, 5 mg/kg): 8.26% | half-life ([2]; oral, 5 mg/kg): 1.7 h

CC[C@@H](C#N)NC(=O)c1ccc(-c2nc(Nc3cnn(C4CCNCC4)c3)ncc2Cl)cc1 [Example 183, (S)-4-(5-chloro-2-((1-(piperidin-4-yl)-1H-pyrazol-4-yl)amino)pyrimidin-4-yl)-N-(1-cyanopropyl)benzamide]
AUC [3]: 29.9 ng·h/mL | Cmax [3]: 5.63 ng/mL | bioavailability [3]: 0.8% | half-life [3]: 3.34 h

CC[C@@H](C#N)NC(=O)c1ccc(-c2nc(Nc3cnn(C4CCN(C)CC4)c3)ncc2C)cc1 [Example 184, (S)—N-(1-Cyanopropyl)-4-(5-methyl-2-((1-(1-methylpiperidin-4-yl)-1H-pyrazol-4-yl)amino)pyrimidin-4-yl)benzamide]
AUC [3]: 527 ng·h/mL | Cmax [3]: 125 ng/mL | bioavailability [3]: 19.1% | half-life [3]: 3.15 h

Cc1cnc(Nc2cnn(C3CCN(C(=O)CO)CC3)c2)nc1-c1ccc(C(=O)N[C@@H](C)C#N)cc1 [Example 119, (S)—N-(1-cyanoethyl)-4-(2-((1-(1-(2-hydroxyacetyl)piperidin-4-yl)-1H-pyrazol-4-yl)amino)-5-methylpyrimidin-4-yl)benzamide]
AUC [3]: 93.6 ng·h/mL | Cmax [3]: 37.9 ng/mL | bioavailability [3]: 4.6% | half-life [3]: 1.66 h

C[C@@H](C#N)NC(=O)c1ccc(-c2nc(Nc3cnn(C4CCNCC4)c3)ncc2Cl)cc1 [Example 165, (S)-4-(5-chloro-2-((1-(piperidin-4-yl)-1H-pyrazol-4-yl)amino)pyrimidin-4-yl)-N-(1-cyanoethyl)benzamide]
AUC [3]: 27.9 ng·h/mL | Cmax [3]: 11 ng/mL | bioavailability [3]: 0.9%

Cc1cnc(Nc2cnn(CC#N)c2)nc1-c1ccc(C(=O)NCC#N)cc1 [Example 4, N-(Cyanomethyl)-4-(2-((1-(cyanomethyl)-1H-pyrazol-4-yl)amino)-5-methylpyrimidin-4-yl)benzamide]
F [4]: 1.9% | AUC ([4]; male, rat, plasma): 29.8 ng·h/mL | Cmax ([4]; male, rat, plasma): 40.4 ng/mL | half-life ([4]; male, rat, plasma): 0.38 h | AUC [5]: 57.2 ng·h/mL | Cmax [5]: 58 ng/mL | bioavailability [5]: 1.8% | half-life [5]: 0.439 h | AUC [6]: 855 ng·h/mL | Vd [6]: 0.37 L/kg | clearance [6]: 19.4 mL/min/kg | half-life [6]: 0.22 h
